≈ marks a conversion by molar mass, not a printed value.
Columns and labels:
Assay type in all cases: cell-based
[1] = system: Staphylococcus aureus; assay: Minimum inhibitory concentration, dilution test, germ 1; settings: 72 h, 5 × 10^7 organisms/ml, 3 days at 37° C.
Description: (§1) In order to measure the antimicrobial efficacy of the above-named ω-aminocarboxylic acid amides, their inhibitory effect upon the subsequently listed bacteria and fungi, as well as upon the germs in contaminated process water was determined.
(§2) 1) Staphylococcus aureus
(§3) The minimum inhibitory concentrations of the products to be tested were determined by means of the dilution test according to the standards for the examination of chemical disinfectants which had been published in 1959 by the Deutsche Gesellschaft fur Hygiene und Mikrobiologie (German Association for Hygiene and Microbiology). The tests were carried out in test tubes which were filled with Standard-I-Broth (Merck) or with beer wort (8° Be) and diluted 1:5 with tap water. After the addition of the active substances, the volume of the nutrient solution in the test tubes was adjusted to 10 ml. Next, the test tubes were inoculated with 0.1 ml test organism suspension. In the case of bacteria, the inoculated test tubes were incubated in the incubator for 3 days at 37° C. and in the case of fungi, they incubated for 6 days at 30° C. Subsequently, the concentration of the compound added to the nutrient medium which was just able to inhibit completely the growth of the germs was determined. The value thus determined was designated as the minimum inhibitory concentration (m.i.c.). The following concentration intervals were used for the tests: 1,000 ppm, 750 ppm, 500 ppm, 250 ppm, 100 ppm, 50 ppm, 25 ppm, 10 ppm, 7.5 ppm, 5 ppm, 2.5 ppm, and 1 ppm.
(§4) The inhibitory concentrations of the individual products for the above-quoted germs which were determined in this dilution test are listed in the following Table III.

[2] = system: Escherichia coli; assay: Minimum inhibitory concentration, dilution test, germ 2; settings: 72 h, 4 × 10^7 organisms/ml, 3 days at 37° C.
Description: as §1
(§5) 2) Escherichia coli 4 × 10^7 organisms/ml
as §3, §4

[3] = system: Pseudomonas aeruginosa; assay: Minimum inhibitory concentration, dilution test, germ 3; settings: 72 h, 4 × 10^7 organism/ml, 3 days at 37° C.
Description: as §1
(§6) 3) Pseudomonas aeruginosa
as §3, §4

[4] = system: Candida albicans; assay: Minimum inhibitory concentration, dilution test, germ 4; settings: 144 h, 2 × 10^6 organisms/ml, 6 days at 30° C.
Description: as §1
4) Candida albicans 2 × 10^6 organisms/ml
as §3, §4

[5] = system: Aspergillus niger; assay: Minimum inhibitory concentration, dilution test, germ 5; settings: 144 h, 9 × 10^5 organisms/ml, 6 days at 30° C.
Description: as §1
5) Aspergillus niger 9 × 10^5 organisms/ml
as §3, §4

[6] = system: Mixture of contaminated water from 3 cooling towers; assay: Minimum inhibitory concentration, dilution test, germ 6
Description: as §1
6) Mixture of contaminated water
as §3, §4

[7] = system: Mixture of contaminated water from 3 scrubbers of air conditioning installations; assay: Minimum inhibitory concentration, dilution test, germ 7
Description: as §1
7) Mixture of contaminated water
from 3 scrubbers of air con-
ditioning installations
as §3, §4

[8] = system: Staphylococcus aureus; assay: Microbicidal effect, suspension test, germ 1; settings: 18° C. to 21° C.
Description: (§7) The microbicidal effect of some products named above was determined by means of the suspension test. The methodology of this testing procedure has been taken from the standards for the testing of chemical disinfectants, published in 1959 by the German Association for Hygiene and Microbiology. In conformity with these standards, 0.1 ml of a test organism suspension of the following enumerated bacteria or fungi was pipetted into test tubes at 18° C. to 21° C.
as §2
(§8) The products of the invention to be tested were dissolved in tap water of 16° dH (German degrees of hardness). Then, 10 ml of the respective dilution quantity of the product to be tested were added to each test tube. The concentrations of the products according to the invention were 100 ppm, 250 ppm and 500 ppm in each case. After a duration of action amounting to 1, 2.5, 5, 10, 20, 30 and 60 minutes, a loop of material was taken from each test tube and inoculated in 10 ml of nutrient solution which contained 3% Tween and 0.3% Lecithin as de-inhibitors. The nutrient solutions inoculated with bacteria were incubated at 37° C. whereas the nutrient solutions inoculated with fungi were incubated at 30° C. After 6 days, the growth of the cultures was macroscopically evaluated.

[9] = system: Escherichia coli; assay: Microbicidal effect, suspension test, germ 2; settings: 18° C. to 21° C.
Description: as §7, §5, §8

[10] = system: Pseudomonas aeruginosa; assay: Microbicidal effect, suspension test, germ 3; settings: 18° C. to 21° C.
Description: as §7, §6, §8

[11] = system: mixed suspension of Scenedesmus obliquus and Chlorella vulgaris; assay: Efficacy in inhibiting growth of algae; settings: 168 h; after 7 days, pH 7.2; read-out: Minimum Inhibitory Concentration, growth of algae
Description: The efficacy in inhibiting growth of algae was determined in cylindrical vessels under intensive aeration. Into the vessels, there were introduced 100 ml of a nutrient solution to which increasing quantities of active substances had been added as well as 4 ml of a mixed suspension of Scenedesmus obliquus and Chlorella vulgaris.
The nutrition solution has the following composition:
These compounds were dissolved in 1000 ml of distilled water. The pH value of the nutrient solution was 7.2. The tests were carried out with the following concentration intervals of the active substance: 10 ppm, 5 ppm, 2.5 ppm, 2 ppm, 1.5 ppm, 1 ppm, 0.75 ppm, 0.5 ppm, and 0.25 ppm.

[12] = system: Desulfovibrio desulfuricans; assay: Inhibition of the growth of sulfate-reducing bacteria; settings: 672 h, 6× 10^5 organisms/ml, 37° C., 4 weeks, pH 7.4, read-out: Inhibitory Concentration, growth of Desulfovibrio Desulfuricans
Description: The minimum inhibitory concentrations were determined in 50 ml screw-top bottles. The bottles were charged with an optimum nutrient solution for the growth of sulfate-reducing bacteria of the following composition:
which compounds were dissolved in 1000 ml of distilled water. The pH value of the nutrient solution was 7.4.
After various concentrations of the products to be tested had been added, 1 ml of a pure culture of Desulfovibrio desulfuricans 6× 10^5 organisms/ml was used for inoculation, followed by incubation at 37° C. for 4 weeks. The following concentration intervals were used for the tests: 100 ppm, 50 ppm, 40 ppm, 30 ppm, 20 ppm, 10 ppm, 5 ppm, 2.5 ppm, and 1 ppm.
In this test, the minimum inhibitory concentrations listed in the following Table VI were determined for the individual products.

| MIC [1] [µg/mL] | MIC [2] [µg/mL] | MIC [3] [µg/mL] | MIC [4] [µg/mL] | MIC [5] [µg/mL] | MIC [6] [µg/mL] | MIC [7] [µg/mL] | MIC [12] [µg/mL] | SMILES | Sterilization Time ([8]; 100 ppm in tap water) [min] | Sterilization Time ([8]; 250 ppm in tap water) [min] | Sterilization Time ([8]; 500 ppm in tap water) [min] | Sterilization Time ([9]; 100 ppm in tap water) [min] | Sterilization Time ([9]; 250 ppm in tap water) [min] | Sterilization Time ([9]; 500 ppm in tap water) [min] | Sterilization Time ([10]; 100 ppm in tap water) [min] | Sterilization Time ([10]; 250 ppm in tap water) [min] | Sterilization Time ([10]; 500 ppm in tap water) [min] | MIC [11] [µg/mL] |
| --- | --- | --- | --- | --- | --- | --- | --- | --- | --- | --- | --- | --- | --- | --- | --- | --- | --- | --- |
| 5 (≈ 15.3 µM) | 5 (≈ 15.3 µM) | 250 (≈ 766 µM) | 50 (≈ 153 µM) | 100 (≈ 306 µM) | 7.5 (≈ 23 µM) | 7.5 (≈ 23 µM) | – | CCCCCCCCCCCCCCNC(=O)CCCCCN [Product F] | – | – | – | – | – | – | – | – | – | – |
| 5 (≈ 16.7 µM) | 5 (≈ 16.7 µM) | 100 (≈ 335 µM) | 50 (≈ 167 µM) | 50 (≈ 167 µM) | 5 (≈ 16.7 µM) | 5 (≈ 16.7 µM) | – | CCCCCCCCCCCCNC(=O)CCCCCN [Product D, 6-aminocapronic acid-dodecylamide] | – | – | – | – | – | – | – | – | – | – |
| 50 (≈ 219 µM) | 50 (≈ 219 µM) | 100 (≈ 438 µM) | 100 (≈ 438 µM) | 100 (≈ 438 µM) | 25 (≈ 109 µM) | 25 (≈ 109 µM) | 5 (≈ 21.9 µM) | CCCCCCCCCCNC(=O)CCN [Product B, 3-aminopropionic acid-decylamide] | 5 | 5 | 5 | 10 | 10 | 10 | 30 | 10 | 10 | 1 (≈ 4.38 µM) |
| 50 | 100 | 500 | 50 | 100 | 25 | 25 | – | CCCCCCCCCCCCNC(=O)CN.Cl [Product A, N-glycyl-dodecylamine hydrochloride] | 10 | 5 | 5 | 20 | 10 | 10 | 60 | 20 | 10 | – |
| 25 (≈ 76.6 µM) | 25 (≈ 76.6 µM) | 1000 (≈ 3060 µM) | 100 (≈ 306 µM) | 250 (≈ 766 µM) | 10 (≈ 30.6 µM) | 10 (≈ 30.6 µM) | 2.5 (≈ 7.66 µM) | CCCCCCCCCCCCNC(=O)CCCCCN(C)C [Product C, 6-(N,N-dimethylamino)capronic acid-dodecylamide] | 5 | 2.5 | 2.5 | 10 | 5 | 5 | 30 | 10 | 5 | 0.75 (≈ 2.3 µM) |
| 50 (≈ 121 µM) | 50 (≈ 121 µM) | 250 (≈ 607 µM) | 250 (≈ 607 µM) | 250 (≈ 607 µM) | 25 (≈ 60.7 µM) | 25 (≈ 60.7 µM) | – | CCCCCCCCCCCCNC(=O)CCCCCNC(=O)CCCCCN [Product E] | – | – | – | – | – | – | – | – | – | – |

From US4022606A, “Antimicrobial use of ω-aminocarboxylic acid amides” (Henkel & Cie G.m.b.H., priority 1973, dated 1977)
